# Tests used:
# porcine liver esterase = assay: Decay in the presence of porcine liver esterase; format: in vitro ADME; conditions: 25° C., phosphate buffer pH 7.4, porcine liver esterase suspension added
# Procedure: This example describes the determination of the halflife of the Compound produced in Example 24 in the absence and presence of porcine liver esterase at 25° C. and pH 7.4.
# A 0.009 M ethanolic stock solution of O2—[S-acetyl-(2-mercaptoethyl)]1-[(2-carboxylato)pyrrolidin-1-yl]diazen-1-ium-1,2-diolate [S-acetyl-(2-mercapto-ethyl)]ester was prepared. The decay of this compound was monitored at 25° C. as 1.5×10^−4 M solutions in a 4 ml quartz cuvette containing 3 ml of phosphate buffer (pH 7.4) and […] of stock solution. The decay of the 232 nm chromophore was monitored on the ultraviolet spectrophotometer. The halflife was estimated as 3.2 hr.
# A second set of experiments was carried out using the above parameters to measure the decay after addition of 5 ml of porcine liver esterase suspension. The half-life for the esterase reaction was 8 min at 25° C.
# [1] = Cleavage of O2-glucopyranosyl diazeniumdiolate to DEA/NO anion and NO as a function of pH; format: physicochemical
# [2] = Kinetics of reaction with sodium methoxide in methanol (HPLC); format: physicochemical; conditions: reaction with excess NaOMe in methanol; disappearance monitored by HPLC
# Text: This Example illustrates the kinetics of reaction of O^2-(2,4-dinitrophenyl) 1-(N,N-diethylamino)diazen-1-ium-1,2-diolate with sodium methoxide in methanol. The kinetics of this reaction show the rate of conversion of O^2-(2,4-dinitrophenyl) 1-(N,N-diethylamino)diazen-1-ium-1,2-diolate to 1-(N,N-diethylamino)diazen-1-ium-1,2-diolate ion in alkaline or nucleophilic environments.
# An excess of NaOMe was used in the reactions; aliquots were collected at intervals and quenched with 0.1 N HCl in methanol. […] This was determined by plotting log[O^2-(2,4-dinitrophenyl) 1-(N,N-diethylamino)diazen-1-ium-1,2-diolate] vs. time to find kobs′ at four different concentrations of NaOMe.
# [3] = tested on: glutathione S-transferase; assay: Glutathione S-transferase kinetics (UV absorbance at 380 nm); format: biochemical; conditions: 25° C., 0.1 M phosphate buffer pH 7.4, enzyme 0.7 μg/ml, glutathione 1.4 mM, diazeniumdiolate 50–100 μM
# Text: The following examples further illustrate the present invention and, of course, should not be construed as in any way limiting its scope. With respect to the following examples, NO was obtained from Matheson Gas Products (Montgomeryville, Pa.), β- and α-glycosidases and porcine liver esterase were obtained from Sigma Chemical Co. (St, Louis, Mo.), polyurethane (Tecoflex) was obtained from Thermedics Inc. (Woburn, Mass.), and glucose and mannose were obtained from Aldrich Chemical Co. (Milwaukee, Wis.). Proton NMR spectra were recorded with a 300 MHz Varian Unity Plus or a Varian XL-200 NMR spectrometer. Spectra were obtained in deuterochloroform for covalent compounds and in D2O for salts. Chemical shifts are reported in parts per million (ppm) downfield from TMS. Low and high resolution mass spectral (MS) measurements were carried out on a VG-Micromass Model 7070 spectrometer. Unless otherwise indicated, MS data were collected in the electron impact mode with sample introduction via direct probe. Ultraviolet (UV) spectra were run as solutions in water or 0.01 M NaOH on an HP 8451A Diode Array spectrophotometer. Glutathione S-transferase kinetics were monitored by measuring the change in UV absorbance at 380 nm with a Beckman DU 640 spectrophotometer. Chemiluminescence measurements were done on a Thermal Energy Analyzer Model 502A instrument (Thermedics, Inc., Woburn, Mass.). […]
# [4] = NO release in the presence or absence of glutathione, chemiluminescence; conditions: 37° C.
# Procedure: This Example illustrates the regeneration of NO from O^2-(2,4-dinitrophenyl) 1-(N,N-diethylamino)diazen-1-ium-1,2-diolate in the presence, but not the absence, of glutathione.
# A solution containing 1 mM glutathione (GSH) in 10 mM phosphate buffer was degassed by purging with argon for 10 min, whereupon a 3 ml aliquot was mixed with 3 μl of a dioxane solution that was 2 mM in O^2-(2,4-dinitrophenyl) 1-(N,N-diethylamino)diazen-1-ium-1,2-diolate. NO release was monitored by chemiluminescence while the mixture was held at 37° C. […] Total NO generation during the first 112 min was approximately 9 nmol. Assuming that […] of NO is generated per mol of O^2-(2,4-dinitrophenyl) 1-(N,N-diethylamino)diazen-1-ium-1,2-diolate, this 9 nmol corresponds to roughly 75% of the theoretical yield.
# The nucleophilic glutathione reacted with the O^2-(2,4-dinitrophenyl) 1-(N,N-diethylamino)diazen-1-ium-1,2-diolate to produce NO according to the equation shown below.
# [5] = tested on: glutathione S-transferase (GST); conditions: FIG. 2
# [6] = 1 mM GSH in 10 mM phosphate buffer
smiles,measurement,setting,value
"CC(=O)SCCON=[N+]([O-])N1CCCC1C(=O)OCCSC(C)=O (stereo not shown) [Example 24, O^2—[S-acetyl-(2-mercaptoethyl)]1-[(2-carboxylato)pyrrolidin-1-yl]diazen-1-ium-1,2-diolate [S-acetyl-(2-mercaptoethyl)]ester]",half-life for the esterase reaction,porcine liver esterase,8 min
"O=C([O-])C1CCCN1[N+]([O-])=N[O-].[Na+].[Na+] (stereo not shown) [Example 19, disodium 1-[(2-carboxylato)pyrrolidin-1-yl]diazen-1-ium-1,2-diolate]",melting point,,250 °C (dec.)
"CCN(CC)[N+]([O-])=NOC1O[C@H](CO)[C@@H](O)[C@H](O)[C@H]1O (stereo partly shown) [Example 31, O^2-glucopyranosyl 1-(N,N-diethylamino)diazen-1-ium-1,2-diolate]","cleavage to DEA/NO anion, then to NO",[1]; pH 3,only extremely slowly
same,"cleavage to DEA/NO anion, then to NO",[1]; pH 13,extremely rapidly
"CCN(CC)[N+]([O-])=NOc1ccc([N+](=O)[O-])cc1[N+](=O)[O-] [Example 1, O^2-(2,4-dinitrophenyl) 1-(N,N-diethylamino)diazen-1-ium-1,2-diolate]",second-order rate constant,[2],0.131 M⁻¹ s⁻¹
same,Km,[3],46.3 µM
same,Vmax,[3],0.89 µM/min
same,time NO generation continued at readily detectable levels,[4]; [6],approximately 100 minutes
same,time of peak nitric oxide generation after reaction was initiated,[4]; [6],approximately 15 minutes
same,total NO generation during the first 112 min,"[4]; 1 mM GSH in 10 mM phosphate buffer, 3 μl of 2 mM solution in 3 ml",approximately 9 nmol
same,NO generated as share of the theoretical yield,"[4]; 1 mM GSH, first 112 min",roughly 75%
same,NO generation with exclusion of the GSH,"[4]; 10 mM phosphate buffer, no GSH",no NO generation was observed
"O=[N+]([O-])c1ccc(ON=[N+]([O-])N2CCCC2)c([N+](=O)[O-])c1 [Example 8, O^2-(2,4-dinitrophenyl) 1-(pyrrolidin-1-yl)diazen-1-ium-1,2-diolate]",relative NO release rate versus time with GST,[5],catalysis of NO release

# — patent US7081524B2, “O2-substituted 1-[(2-carboxylato)pyrrolidin-1-yl]diazen-1-ium-1,2-diolates” (The United States of America as represented by the …, priority 1996, dated 2006)
